Assay results published in US20100137381A1, “ACETAMIDE DERIVATIVES AS POTASSIUM CHANNEL MODULATORS” (NeuroSearch A/S, priority 2007, published 2010).

How the values were obtained:
[1] = molecular target: chloride channel (human erythrocyte chloride conductance); test: In vitro human erythrocyte chloride conductance; format: cell-based; conditions: suspensions of human erythrocytes; calculated from dose-response of membrane Cl-conductance (GCl); read-out: KD-value, chloride conductance block
Text: In this example the chloride channel blocking activity of an acetamide derivative representative of the invention, i.e. Compound 3 (2-(4-Chloro-phenyl)-N-[4′-chloro-3-(1H-tetrazol-5-yl)-biphenyl-4-yl]-acetamide), has been determined.
All dose-response experiments were therefore performed by concomitant measurements of conductive netfluxes of Cl^− (JCl) and membrane potentials (Vm) in suspensions of erythrocytes as described by Bennekou et al. (Bennekou P and Christophersen P: Flux ratio of Valinomycin—Mediated K^+Fluxes across the Human Red Cell Membrane in the presence of the Protronophore CCCP; J. Membrane Biol. 1986 93 221-227).
The membrane Cl-conductances (GCl) were calculated according to Hodgkin et al. (Hodgkin A L and Huxley A F: The components of membrane conductance in the giant axon of Loligo; J. Physiol. Lond. 1952 116 449-472) using the following equation: […]
where F is the Faraday constant and ECl is the Nernst potential for the Cl-ion.

[2] = molecular target: T1, BK channels heterologously expressed in Xenopus laevis oocytes (Homo sapiens, UniProt Q12791); test: BK channel activation, two-electrode voltage clamp in Xenopus laevis oocytes; format: cell-based; conditions: depolarising step to +20 mV
T1 construct: expressed in transfected cells; host or cells: Xenopus laevis oocytes
T1 sequence (Q12791 whole entry): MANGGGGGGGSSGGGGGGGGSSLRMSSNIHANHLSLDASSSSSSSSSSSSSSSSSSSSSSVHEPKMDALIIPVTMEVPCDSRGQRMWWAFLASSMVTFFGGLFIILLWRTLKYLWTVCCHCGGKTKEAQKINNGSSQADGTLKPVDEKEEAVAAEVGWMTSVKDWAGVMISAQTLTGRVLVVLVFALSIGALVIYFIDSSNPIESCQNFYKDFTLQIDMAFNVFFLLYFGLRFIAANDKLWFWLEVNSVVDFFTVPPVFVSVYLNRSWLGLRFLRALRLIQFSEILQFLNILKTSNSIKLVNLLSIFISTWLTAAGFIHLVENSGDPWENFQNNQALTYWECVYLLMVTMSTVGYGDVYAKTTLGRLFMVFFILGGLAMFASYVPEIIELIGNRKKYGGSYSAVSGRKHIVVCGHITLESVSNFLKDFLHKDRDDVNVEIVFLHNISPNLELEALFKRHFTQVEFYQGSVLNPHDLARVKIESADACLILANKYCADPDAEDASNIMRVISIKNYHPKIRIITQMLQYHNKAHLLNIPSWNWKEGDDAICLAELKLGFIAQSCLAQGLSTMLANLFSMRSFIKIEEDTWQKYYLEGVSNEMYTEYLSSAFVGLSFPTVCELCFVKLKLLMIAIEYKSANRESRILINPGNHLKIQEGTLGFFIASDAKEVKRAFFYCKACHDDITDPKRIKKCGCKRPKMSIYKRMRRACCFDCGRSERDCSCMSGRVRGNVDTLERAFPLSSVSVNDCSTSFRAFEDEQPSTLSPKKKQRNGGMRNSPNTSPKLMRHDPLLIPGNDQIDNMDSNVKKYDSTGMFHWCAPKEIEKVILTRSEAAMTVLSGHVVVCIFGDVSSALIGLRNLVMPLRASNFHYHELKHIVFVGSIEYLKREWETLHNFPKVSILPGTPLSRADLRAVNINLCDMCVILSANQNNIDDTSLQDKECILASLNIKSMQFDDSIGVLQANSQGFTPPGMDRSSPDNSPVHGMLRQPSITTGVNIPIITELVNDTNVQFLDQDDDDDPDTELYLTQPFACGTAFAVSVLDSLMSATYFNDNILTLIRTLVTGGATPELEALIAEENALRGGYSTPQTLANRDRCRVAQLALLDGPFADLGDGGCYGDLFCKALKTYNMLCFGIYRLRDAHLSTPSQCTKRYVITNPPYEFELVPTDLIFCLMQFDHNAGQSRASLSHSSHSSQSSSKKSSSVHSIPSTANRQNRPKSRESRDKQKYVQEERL
Protocol: In this example the BK channel opening activity of two acetamide derivatives of to the invention, i.e. 2-(3,5-difluoro-phenyl)-N-[3-(5-oxo-4,5-dihydro-[1,2,4]oxadiazol-3-yl)-4′-trifluoromethyl-biphenyl-4-yl]-acetamide (Compound 7), and 2-(3,5-bis-trifluoromethyl-phenyl)-N-[4-bromo-2-(1H-tetrazol-5-yl)-phenyl]-acetamide (Compound 2) herein designated Compound A and Compound B, respectively, is determined using BK channels heterologously expressed in Xenopus laevis oocytes.
The electrical current through the BK channel is measured by conventional two-electrode voltage clamp. BK current is activated by repeated step protocols. In brief, this protocol goes from a resting membrane potential of −40 mV lasting for 5 s to a depolarised step to +20 mV lasting for 1 s. The protocol was repeated continuously.
Having reached a stable current level, Compound A (3 μM) and Compound B (10 μM), respectively, was added. A marked increase in the current activated by depolarisation could be observed. The BK current activity returned to baseline after approximately 30-80 seconds of wash. In summary BK current was increased by 367±92% in the presence of 3 μM of Compound A (n=3, SD value), and 327±88% in the presence of 10 μM of Compound B.

O=C(Cc1ccc(Cl)cc1)Nc1ccc(-c2ccc(Cl)cc2)cc1-c1nnn[nH]1 [Compound 3, 2-(4-Chloro-phenyl)-N-[4′-chloro-3-(1H-tetrazol-5-yl)-biphenyl-4-yl]-acetamide]
Kd [1]: 90 nM

O=C(Cc1cc(F)cc(F)c1)Nc1ccc(-c2ccc(C(F)(F)F)cc2)cc1-c1noc(=O)[nH]1 [Compound A, 2-(3,5-difluoro-phenyl)-N-[3-(5-oxo-4,5-dihydro-[1,2,4]oxadiazol-3-yl)-4′-trifluoromethyl-biphenyl-4-yl]-acetamide]
BK current increase ([2]; 3 μM compound, n=3, SD value): 367±92%

O=C(Cc1cc(C(F)(F)F)cc(C(F)(F)F)c1)Nc1ccc(Br)cc1-c1nnn[nH]1 [Compound B, 2-(3,5-Bis-trifluoromethyl-phenyl)-N-[4-bromo-2-(1H-tetrazol-5-yl)-phenyl]-acetamide]
BK current increase ([2]; 10 μM compound): 327±88%
